Measured values reported in patent publication US20250129095A1, “ANNULATED 2-AMINO-3-CYANO THIOPHENES AND DERIVATIVES FOR THE TREATMENT OF CANCER” (Boehringer Ingelheim Int'l GmbH Corp., priority 2021, published 2025).

Columns and labels:
Caco-2 assay = format: in vitro ADME; conditions: human, 10 μM test compound, pH 7.4; for efflux ratio at 90 min, 10 μM: Caco-2 efflux ratio PappBA/PappAB, read-out: Caco ER; for Papp A→B at 90 min, 10 μM: Caco-2, apical to basolateral (a-b) permeability, read-out: Caco PappAB
From the text: The assay provides information on the potential of a compound to pass the cell membrane, on the extent of oral absorption as well as on whether the compound is actively transported by uptake and/or efflux transporters. Permeability measurements across polarized, confluent Caco-2 cell monolayers grown on permeable filter supports (Corning, catalog #3391) are used. […] The receiver and donor compartments contain 0.25% bovine serum albumine (BSA) in assay buffer. Passive diffusion and/or active transport of compounds across the monolayer is measured in both apical to basolateral (a-b) and basolateral to apical (b-a) direction. a-b permeability (PappAB) represents drug absorption from the intestine into the blood and b-a permeability (PappBA) drug secretion from the blood back into the intestine via both passive permeability as well as active transport mechanisms mediated by efflux and uptake transporters that are expressed on the Caco-2 cells. After a pre-incubation of 25-30 min at 37° C., at predefined time points (0, 30, 60 and 90 min), samples were taken from the receiver and donor compartment, respectively.
Concentrations of test compounds in samples were measured by HPLC/MS/MS, samples from the donor compartment were diluted 1:50 (v:v) with assay buffer, samples from receiver compartment were measured without dilution.
Apparent permeabilities in a-b (PappAB) and b-a (PappBA) directions are calculated according to the formula:
[formula] • Vrec [mL]: buffer volume in receiver compartment • Cdon [pmol/mL]: concentration of test compound in donor compartment at t=0 • ΔCrec: difference between concentrations of test compound in receiver compartment at start and end of incubation time • Δt: Incubation time • Vrec·ΔCrec/Δt [[…]]: Amount of compound transferred to receiver compartment per time • A [cm^2]: filter surface
Caco-2 efflux ratios (ER) are calculated as the ratio of PappBA/PappAB.

KRAS (WT)::SOS1 = target: T1, KRAS (WT)::SOS1 (Homo sapiens, UniProt P01116, C118S); assay: KRAS::SOS1 AlphaScreen binding assay, KRAS WT
T1 construct: KRAS (WT) 1-169, N-terminal 6His-tag for purification, cleaved off; 6His-tag (N, cleaved yes); TEV cleavage site; made in house
T1 sequence (P01116 1-169 isoform P01116-2 C118S): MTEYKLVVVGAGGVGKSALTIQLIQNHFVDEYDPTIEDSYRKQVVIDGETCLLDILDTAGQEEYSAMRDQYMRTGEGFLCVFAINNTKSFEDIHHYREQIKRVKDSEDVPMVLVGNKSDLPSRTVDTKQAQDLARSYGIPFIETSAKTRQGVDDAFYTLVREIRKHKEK
From the text: (§1) This assay can be used to examine the potency with which compounds according to the invention binding to (mutated) KRAS inhibit the protein-protein interaction between SOS1 and (mutated) KRAS e.g., KRAS WT, KRAS G12C, KRAS G12D, KRAS G12V, KRAS G13D. […] Low IC50 values in this assay setting are indicative of strong inhibition of protein-protein interaction between SOS1 and KRAS:
(§2) These assays measure the inhibitory effect of compounds on KRAS mutant protein-protein interactions using the Alpha Screen technology by Perkin Elmer
(§3) The following (mutant) enzyme forms of KRAS and interacting proteins are used in these assays at the given concentrations: • KRAS (G12D) 1-169, N-terminal 6His-tag, C-terminal avi-tag (Xtal BioStructures, Inc.); final assay concentration 10 nM and SOS1 564-1049, N-terminal 229 GST-tag, TEV cleavage site (Viva Biotech Ltd); final assay concentration 5 nM; • KRAS (G12C) 1-169, N-terminal 6His-tag for purification, cleaved off, C-terminal avi-tag, biotinylated, mutations: C51S, C80L, C118S (in house); final assay concentration 7.5 nM and SOS1 564-1049, N-terminal 229 GST-tag, TEV cleavage site (Viva Biotech Ltd); final assay concentration 5 nM; • KRAS (G12V) 1-169, N-terminal 6His-tag for purification, cleaved off, C-terminal avi-tag, biotinylated, TEV cleavage site, mutation: C118S, GDP loaded (in house); final assay concentration 10 nM and SOS1 564-1049, N-terminal 229 GST-tag, TEV cleavage site (Viva Biotech Ltd); final assay concentration 10 nM; • KRAS (G13D) 1-169, N-terminal 6His-tag for purification, cleaved off, C-terminal avi-tag, biotinylated, TEV cleavage site, mutation: C118S, GDP loaded (in house); final assay concentration 10 nM and SOS1 564-1049, N-terminal 229 GST-tag, TEV cleavage site (Viva Biotech Ltd); final assay concentration 10 nM; • KRAS (WT) 1-169, N-terminal 6His-tag for purification, cleaved off, C-terminal avi-tag, biotinylated, TEV cleavage site, mutation: C118S, GDP loaded (in house); final assay concentration 10 nM and SOS1 564-1049, N-terminal 229 GST-tag, TEV cleavage site (Viva Biotech Ltd); final assay concentration 10 nM.
(§4) Test compounds dissolved in DMSO are dispensed onto assay plates (Proxiplate 384 PLUS, white, PerkinElmer; 6008289) using an Access Labcyte Workstation with the Labcyte Echo 55×. For the chosen highest assay concentration of 100 μM, 150 nL of compound solution are transferred from a 10 mM DMSO compound stock solution. A series of eleven fivefold dilutions per compound are transferred to the assay plate, compound dilutions are tested in duplicates. DMSO are added as backfill to a total volume of 150 nL.
(§5) The assays run on a fully automated robotic system in a darkened room below 100 Lux. To 150 nl of compound dilution 10 μl of a mix including KRAS mutant protein, SOS1 (final assay concentrations see above) and GDP nucleotide (Sigma G7127; final assay concentration 10 μM) in assay buffer (1×PBS, 0.1% BSA, 0.05% Tween 20) are added into columns 1-24.
(§6) After 30 minutes incubation time 5 μl of Alpha Screen bead mix in assay buffer are added into columns 1-23. Bead mix consists of AlphaLISA Glutathione Acceptor Beads (PerkinElmer, Cat No AL109) and AlphaScreen Streptavidin Donor Beads (PerkinElmer Cat No 6760002) in assay buffer at a final assay concentration of 10 μg/ml each.
(§7) Plates are kept at room temperature in a darkened incubator. After an additional 60 minutes incubation time the signal is measured in a PerkinElmer Envision HTS Multilabel Reader using the AlphaScreen specs from PerkinElmer.
(§8) Each plate contains up to 16 wells of a negative control depending on the dilution procedure (platewise or serial) (DMSO instead of test compound; with KRAS mutant::SOS1 GDP mix and bead mix; column 23) and 16wells of a positive control (DMSO instead of test compound; with KRAS mutant::SOS1 GDP mix w/o bead mix; column 24).
(§9) As internal control known inhibitors of KRAS mutant::SOS1 interaction can be measured on each compound plate. […]

KRAS (G12V)::SOS1 = target: T2, KRAS (G12V)::SOS1 (Homo sapiens, UniProt P01116, C118S/G12V); assay: KRAS::SOS1 AlphaScreen binding assay, KRAS G12V
T2 construct: KRAS (G12V) 1-169, N-terminal 6His-tag for purification, cleaved off; 6His-tag (N, cleaved yes); TEV cleavage site; made in house
T2 sequence (P01116 1-169 isoform P01116-2 G12V/C118S): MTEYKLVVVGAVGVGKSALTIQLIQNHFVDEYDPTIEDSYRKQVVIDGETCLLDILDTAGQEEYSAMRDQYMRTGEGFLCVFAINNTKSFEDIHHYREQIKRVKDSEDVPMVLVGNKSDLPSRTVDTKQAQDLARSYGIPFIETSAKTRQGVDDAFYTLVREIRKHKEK
From the text: as §1, §2, §3, §4, §5, §6, §7, §8, §9

| SMILES | efflux ratio at 90 min, 10 μM (Caco-2 assay) | Papp A→B at 90 min, 10 μM (Caco-2 assay) [×10⁻⁶ cm/s] | IC50 (KRAS (WT)::SOS1) [nM] | IC50 (KRAS (G12V)::SOS1) [nM] |
| --- | --- | --- | --- | --- |
| C[C@H](Oc1cc(Oc2nccs2)nc(-c2noc3c2CCC[C@@]32CCCc3sc(N)c(C#N)c32)n1)[C@@H]1CCCN1C [II-2] | 0.5 |  |  |  |
| C[C@H](Oc1cc(Oc2cccnc2)nc(-c2onc3c2CCC[C@@]32CCCc3sc(N)c(C#N)c32)n1)[C@@H]1CCCN1C [Example I-2] |  |  | 4 | 1 |
| COCCOc1cc(O[C@@H](C)[C@@H]2CCCN2C)nc(-c2noc3c2CCC[C@@]32CCCc3sc(N)c(C#N)c32)n1 [II-5] | 1.4 | 14 |  |  |
| C[C@H](Oc1cc(O[C@H]2CCOC2)nc(-c2noc3c2CCC[C@@]32CCCc3sc(N)c(C#N)c32)n1)[C@@H]1CCCN1C [II-4] | 3.7 | 8.6 |  |  |
| COC[C@H](C)Nc1cc(O[C@@H](C)[C@@H]2CCCN2C)nc(-c2onc3c2CCC[C@@]32CCCc3sc(N)c(C#N)c32)n1 [Example I-5] | 7.7 | 4.3 |  |  |
| C[C@H](Oc1cc(Oc2cncnc2)nc(-c2noc3c2CCC[C@@]32CCCc3sc(N)c(C#N)c32)n1)[C@@H]1CCCN1C [II-1] | 1.5 | 17 | 3 |  |
| C[C@H](Oc1cc(OCC2(N(C)C)COC2)nc(-c2onc3c2CCC[C@@]32CCCc3sc(N)c(C#N)c32)n1)[C@@H]1CCCN1C [Example I-8] |  |  |  | 3 |
| C[C@H](Oc1cc(Oc2nccs2)nc(-c2onc3c2CCC[C@@]32CCCc3sc(N)c(C#N)c32)n1)[C@@H]1CCCN1C [Example I-1] |  |  | 4 | 2 |
| C[C@H](Oc1cc(Oc2cncnc2)nc(-c2onc3c2CCC[C@@]32CCCc3sc(N)c(C#N)c32)n1)[C@@H]1CCCN1C [Example I-3] | 1.3 | 18 | 2 |  |
| C[C@H](Oc1cc(O[C@H]2CNC(C)(C)C2)nc(-c2noc3c2CCC[C@@]32CCCc3sc(N)c(C#N)c32)n1)[C@@H]1CCCN1C (single isomer, unassigned) [II-8] |  |  |  | 10 |
| C[C@H](Oc1cc(OCCO)nc(-c2noc3c2CCC[C@@]32CCCc3sc(N)c(C#N)c32)n1)[C@@H]1CCCN1C [II-6] | 20.8 | 1.2 |  |  |
| C[C@H](Oc1cc(Nc2ccccn2)nc(-c2onc3c2CCC[C@@]32CCCc3sc(N)c(C#N)c32)n1)[C@@H]1CCCN1C [Example I-6] | 2.5 |  |  |  |

Next, values leading:

| efflux ratio at 90 min, 10 μM (Caco-2 assay) | Papp A→B at 90 min, 10 μM (Caco-2 assay) [×10⁻⁶ cm/s] | IC50 (KRAS (WT)::SOS1) [nM] | IC50 (KRAS (G12V)::SOS1) [nM] | SMILES |
| --- | --- | --- | --- | --- |
| 17.9 | 1.4 |  |  | C[C@H](Oc1cc(Nc2cccnn2)nc(-c2noc3c2CCC[C@@]32CCCc3sc(N)c(C#N)c32)n1)[C@@H]1CCCN1C [II-18] |
| 3.1 |  |  |  | C[C@H](Oc1cc(Nc2ccccn2)nc(-c2noc3c2CCC[C@@]32CCCc3sc(N)c(C#N)c32)n1)[C@@H]1CCCN1C [II-16] |
| 38 | 0.8 |  |  | C[C@H](Oc1cc(N(C)CCN(C)C)nc(-c2noc3c2CCC[C@@]32CCCc3sc(N)c(C#N)c32)n1)[C@@H]1CCCN1C [II-20] |
| 125 | 0.2 | 2 | 2 | CO[C@@H]1C[C@@H]([C@H](C)Oc2cc(O[C@@H]3CNC3(C)C)nc(-c3noc4c3CCC[C@@]43CCCc4sc(N)c(C#N)c43)n2)N(C)C1 [II-30] |
|  |  | 10 |  | C[C@H]1CN(C)CCCN1c1cc(O[C@@H]2CNC2(C)C)nc(-c2noc3c2CCC[C@@]32CCCc3sc(N)c(C#N)c32)n1 [II-28] |
| 25.5 | 0.9 | 4 | 2 | C[C@H](Oc1cc(O[C@@H]2CNC[C@@H]2F)nc(-c2noc3c2CCC[C@@]32CCCc3sc(N)c(C#N)c32)n1)[C@@H]1CCCN1C [II-29] |
| 15.5 | 2.6 | 2 | 2 | C[C@H](Oc1cc(OCC2(N(C)C)COC2)nc(-c2noc3c2CCC[C@@]32CCCc3sc(N)c(C#N)c32)n1)[C@@H]1CCCN1C [II-22] |
| 3.1 | 5.2 | 7 | 2 | C[C@H](Oc1cc(Nc2ncco2)nc(-c2noc3c2CCC[C@@]32CCCc3sc(N)c(C#N)c32)n1)[C@@H]1CCCN1C [II-13] |
| 1.4 |  |  |  | C[C@H](Oc1cc(OCC2(N(C)C)CC2)nc(-c2noc3c2CCC[C@@]32CCCc3sc(N)c(C#N)c32)n1)[C@@H]1CCCN1C [II-21] |
| 50.7 | 0.8 | 2 | 2 | C[C@H](Oc1cc(O[C@@H]2CNC2(C)C)nc(-c2noc3c2CCC[C@@]32CCCc3sc(N)c(C#N)c32)n1)[C@@H]1C[C@@H](F)CN1C [II-31] |
| 13.6 | 2.5 | 4 | 2 | COc1c(OCC2(N(C)C)COC2)nc(-c2noc3c2CCC[C@@]32CCCc3sc(N)c(C#N)c32)nc1O[C@@H](C)[C@@H]1CCCN1C [II-25] |
|  |  | 10 | 3 | C[C@H](Oc1cc(Nc2cnccn2)nc(-c2noc3c2CCC[C@@]32CCCc3sc(N)c(C#N)c32)n1)[C@@H]1CCCN1C [II-14] |
| 3 | 7.6 |  |  | C[C@H](Oc1cc(N(C)C)nc(-c2noc3c2CCC[C@@]32CCCc3sc(N)c(C#N)c32)n1)[C@@H]1CCCN1C [II-10] |
| 14.5 | 2 |  |  | C[C@H](Oc1cc(Nc2ccncn2)nc(-c2noc3c2CCC[C@@]32CCCc3sc(N)c(C#N)c32)n1)[C@@H]1CCCN1C [II-15] |
| 5 | 3.9 | 8 | 2 | C[C@H](Oc1cc(Nc2ncccn2)nc(-c2noc3c2CCC[C@@]32CCCc3sc(N)c(C#N)c32)n1)[C@@H]1CCCN1C [II-17] |
